Test results reported in ChEMBL document CHEMBL1201862, “PubChem BioAssay data set” (2004).
Active and inactive are the calls of the source. Rule as the data show it, for most assays here: actives have a measured EC50 and inactives only a lower limit.

Tests used:
[1] = target: T1, Replicative DNA helicase DnaB (Mycobacterium tuberculosis, UniProt P9WMR3); experiment: DnaB intein splicing inhibitors, dose response, biochemical, cell-free fluorescence (AID 449749); assay type: functional
T1 sequence (P9WMR3 whole entry): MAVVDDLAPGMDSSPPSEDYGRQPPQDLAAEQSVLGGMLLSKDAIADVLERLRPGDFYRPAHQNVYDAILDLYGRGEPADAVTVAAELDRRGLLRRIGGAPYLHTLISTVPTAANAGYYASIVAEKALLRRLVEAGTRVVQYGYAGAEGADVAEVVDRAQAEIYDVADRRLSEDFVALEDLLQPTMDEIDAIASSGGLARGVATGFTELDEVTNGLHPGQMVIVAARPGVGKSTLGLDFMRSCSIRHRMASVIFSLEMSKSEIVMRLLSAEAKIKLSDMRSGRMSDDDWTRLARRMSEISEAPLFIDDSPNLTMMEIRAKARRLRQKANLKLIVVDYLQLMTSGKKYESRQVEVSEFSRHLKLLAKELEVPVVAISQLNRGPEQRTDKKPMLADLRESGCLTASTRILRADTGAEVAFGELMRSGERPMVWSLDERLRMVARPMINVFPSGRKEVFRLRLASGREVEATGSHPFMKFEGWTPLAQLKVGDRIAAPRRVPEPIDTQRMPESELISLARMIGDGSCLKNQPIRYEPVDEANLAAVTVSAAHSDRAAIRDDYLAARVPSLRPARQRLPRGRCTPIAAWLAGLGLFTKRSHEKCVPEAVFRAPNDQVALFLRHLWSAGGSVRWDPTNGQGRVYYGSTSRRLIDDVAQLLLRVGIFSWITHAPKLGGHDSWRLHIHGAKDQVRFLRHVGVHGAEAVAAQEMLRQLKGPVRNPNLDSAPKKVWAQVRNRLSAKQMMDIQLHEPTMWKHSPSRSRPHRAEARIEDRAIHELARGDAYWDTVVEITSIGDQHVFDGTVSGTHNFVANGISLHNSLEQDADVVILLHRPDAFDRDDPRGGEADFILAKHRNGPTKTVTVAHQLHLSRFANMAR

Protein RecA = target: T2, Protein RecA (Mycobacterium tuberculosis, UniProt P9WHJ3); experiment: Fluorescence Cell-Free Homogeneous Dose Retest to Identify Inhibitors of RecA-Intein Splicing Activity. [Related pubchem assays (depositor defined):AID2097, AID2223, AID489010, AID492950]; assay type: functional
T2 sequence (P9WHJ3 whole entry): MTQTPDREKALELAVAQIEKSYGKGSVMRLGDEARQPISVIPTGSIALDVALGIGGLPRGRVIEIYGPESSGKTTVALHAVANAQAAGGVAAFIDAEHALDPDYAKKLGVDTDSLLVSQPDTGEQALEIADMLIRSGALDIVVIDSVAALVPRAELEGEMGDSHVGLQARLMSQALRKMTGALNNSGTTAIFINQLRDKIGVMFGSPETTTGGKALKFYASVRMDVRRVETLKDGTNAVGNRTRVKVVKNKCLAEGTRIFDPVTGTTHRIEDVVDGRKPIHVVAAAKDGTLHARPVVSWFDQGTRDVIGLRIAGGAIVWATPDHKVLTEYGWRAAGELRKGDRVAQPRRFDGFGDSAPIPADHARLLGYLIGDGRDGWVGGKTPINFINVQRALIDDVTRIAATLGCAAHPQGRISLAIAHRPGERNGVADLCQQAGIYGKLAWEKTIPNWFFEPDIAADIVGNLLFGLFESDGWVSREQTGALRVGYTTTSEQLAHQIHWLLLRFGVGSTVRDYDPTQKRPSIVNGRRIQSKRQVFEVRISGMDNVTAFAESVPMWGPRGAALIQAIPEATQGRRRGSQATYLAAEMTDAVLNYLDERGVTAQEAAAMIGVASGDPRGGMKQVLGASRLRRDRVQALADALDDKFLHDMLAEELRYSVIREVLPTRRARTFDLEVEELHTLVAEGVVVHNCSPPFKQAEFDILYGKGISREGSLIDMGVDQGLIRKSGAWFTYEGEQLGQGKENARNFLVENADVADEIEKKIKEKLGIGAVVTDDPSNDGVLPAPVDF

[2] = target: T3, Corticotropin-releasing factor receptor 2/Corticotropin-releasing factor-binding protein (Homo sapiens, UniProt P24387+Q13324); experiment: activators of CRF receptor 2 with binding protein – uHTS hits, confirmation (AID 602473); assay type: functional; details: read-out: EC50_Mean
T3 sequence (Q13324 whole entry): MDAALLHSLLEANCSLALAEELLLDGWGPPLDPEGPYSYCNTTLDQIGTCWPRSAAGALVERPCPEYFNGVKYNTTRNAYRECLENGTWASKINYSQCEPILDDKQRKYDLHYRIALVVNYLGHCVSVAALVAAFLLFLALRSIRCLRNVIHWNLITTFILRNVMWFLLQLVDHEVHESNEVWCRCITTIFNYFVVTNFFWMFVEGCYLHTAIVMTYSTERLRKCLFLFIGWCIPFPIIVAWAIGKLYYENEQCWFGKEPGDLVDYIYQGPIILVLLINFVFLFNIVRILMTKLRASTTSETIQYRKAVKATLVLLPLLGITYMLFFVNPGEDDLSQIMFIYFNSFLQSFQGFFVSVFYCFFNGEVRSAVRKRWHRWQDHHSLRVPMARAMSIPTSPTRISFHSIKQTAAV
T3 sequence (P24387 whole entry): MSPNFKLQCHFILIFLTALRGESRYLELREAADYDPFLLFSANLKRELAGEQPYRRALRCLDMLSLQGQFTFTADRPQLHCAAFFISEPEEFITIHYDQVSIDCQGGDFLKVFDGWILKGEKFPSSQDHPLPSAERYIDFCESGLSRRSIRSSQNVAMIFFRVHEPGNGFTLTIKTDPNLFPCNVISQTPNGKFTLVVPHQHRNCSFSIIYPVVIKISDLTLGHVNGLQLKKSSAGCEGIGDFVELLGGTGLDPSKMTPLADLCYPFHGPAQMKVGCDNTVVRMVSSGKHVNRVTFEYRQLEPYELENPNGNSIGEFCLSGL

[3] = target: T3, Corticotropin-releasing factor receptor 2/Corticotropin-releasing factor-binding protein; experiment: Dose Response confirmation of uHTS hits for small molecule antagonists of the CRF-binding protein and CRF-R2 receptor complex.; assay type: functional; details: read-out: IC50_Mean
[4] = target: T4, Rac GTPase-activating protein 1 (Homo sapiens, UniProt Q9H0H5); experiment: blockers of MgcRacGAP-driven Rac1 GTP hydrolysis – biochemical, ADP Hunter fluorescence, primary and confirmatory, confirmation (AID 624330); assay type: functional
T4 sequence (Q9H0H5 whole entry): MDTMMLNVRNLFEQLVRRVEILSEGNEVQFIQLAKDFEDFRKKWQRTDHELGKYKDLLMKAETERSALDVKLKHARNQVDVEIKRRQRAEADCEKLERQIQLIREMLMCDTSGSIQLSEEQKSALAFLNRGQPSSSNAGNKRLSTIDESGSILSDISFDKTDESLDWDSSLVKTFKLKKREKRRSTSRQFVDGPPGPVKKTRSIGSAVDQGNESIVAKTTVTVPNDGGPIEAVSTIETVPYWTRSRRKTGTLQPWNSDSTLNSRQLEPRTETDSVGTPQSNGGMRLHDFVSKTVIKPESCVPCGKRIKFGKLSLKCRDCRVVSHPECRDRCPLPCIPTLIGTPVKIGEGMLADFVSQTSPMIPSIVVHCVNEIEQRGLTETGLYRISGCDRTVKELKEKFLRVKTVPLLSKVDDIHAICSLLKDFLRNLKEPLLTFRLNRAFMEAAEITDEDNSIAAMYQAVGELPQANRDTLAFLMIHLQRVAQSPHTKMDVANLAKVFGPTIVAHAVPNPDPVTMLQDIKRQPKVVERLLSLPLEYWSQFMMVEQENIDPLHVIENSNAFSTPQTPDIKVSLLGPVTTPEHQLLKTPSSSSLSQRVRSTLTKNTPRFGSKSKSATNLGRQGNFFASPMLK

H4 = experiment: Luminescence Cell-Based Dose Response HTS to Identify Activators of 5'UTR Stem-Loop Driven Prion Protein mRNA Translation in H4 Neuroglioblastoma Cells. [Related pubchem assays: 1829 (Project Summary), 1814 (Primary HTS)]; assay type: functional; details: Homo sapiens
[5] = Luminescence Cell-Based Dose Confirmation HTS to Identify Activators of 5'UTR Stem-Loop Driven Alpha-Synuclein mRNA Translation in H4 Neuroglioblastoma Cells. [Related pubchem assays: 1829 (Project Summary), 1814 (Primary HTS)]; assay type: functional
[6] = Luminescence Cell-Based Dose Response HTS to Identify Activators of Luciferase Translation or Activity in H4 […] Cells. [Related pubchem assays: 1829 (Project Summary), 1814 (Primary HTS)]; assay type: functional
[7] = test system: Streptococcus sp. 'group A'; experiment: Streptococcus pyogenes SK(-)GAS viability under kanamycin – luminescence, BacTiterGlo, confirmation, counter-screen for streptokinase expression inhibitor project, dose response (AID 1900); assay type: functional, organism-based
Streptococcus = experiment: GAS UMAA2166 growth inhibition – luminescence, BacTiterGlo, counter-screen for streptokinase expression inhibitor project, dose response (AID 1915); assay type: functional, organism-based;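 also: potency for reduction of bacterial viability or growth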
INS1 = experiment: INS-1E survival protection against cytokine death – cell-based, luminescence, retest, dose response (AID 449756); assay type: functional; details: Rattus norvegicus;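 also: cell death triggered by IL-1 beta plus TNF-alpha plus IFN-gamma mixture; protective hits raise ATP signal compared with cytokine alone wells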
[8] = NIH3T3 cell viability loss – ATP luminescence, mouse fibroblasts, counter-screen, dose response (AID 2010); assay type: functional, cell-based;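 also: cells exposed to compound for about 90 hours before reading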
[9] = Trypanosoma cruzi growth suppression in host cells – NIH3T3 host cells, beta-gal luminescence, confirmation (AID 2044); assay type: functional, cell-based;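 also: intracellular parasites grown in NIH/3T3 mouse fibroblasts as host cells; luminescent beta-galactosidase reporter signal from transgenic T. cruzi replicating inside host cells; inhibitors lower the luminescence signal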

SMILES	IC50 [4]	EC50 (H4)	EC50 [5]	EC50 [6]	further results
COc1cc(/C=C(\C#N)C(=O)Nc2ccc3c(c2)OCCO3)ccc1O	34 µM (active)	–	–	–	AC50 [1]: 75.9 µM (active); EC50 (Protein RecA): 13.9 µM (active); EC50 [2]: > 53 µM (inactive); IC50 [3]: > 47.1 µM (inactive)
COc1cc(/C=C/C(=O)OCC(=O)N(CC(C)C)c2c(N)n(Cc3ccccc3)c(=O)[nH]c2=O)ccc1O	65.7 µM (active)	–	–	–	EC50 [2]: 2.73 µM (active)
COc1cccc(NC(=O)C(=O)NCC2CCCN2S(=O)(=O)c2ccccc2)c1 (centres undefined)	–	58.8 µM (active)	4.26 µM (active)	2.67 µM (active)	–
O=c1c2ccccc2nc(/C=C/c2ccc(O)c(O)c2)n1-c1ccccc1	73.9 µM (active)	–	–	–	–
Cc1ccc2c(c1)C(c1ccncc1)=NNC(c1ccccc1)=N2	–	21.2 µM (active)	0.364 µM (active)	> 120 µM (not active)	–
Cn1c(CN2CCOCC2)nc2cc(NC(=O)c3ccc(Cl)cc3)ccc21	–	> 120 µM (not active)	26.7 µM (active)	14.3 µM (active)	–
COc1cc(/C=N/NC(=O)c2nc(-c3ccccc3)n(-c3ccccc3)n2)ccc1O	38.7 µM (active)	–	–	–	–
Cc1ccc(O)c(NC(=S)NC(=O)c2ccc(-c3ccc(Cl)cc3)o2)c1	–	–	–	–	EC50 [7]: 1.16 µM (active); EC50 (Streptococcus): 5.74 µM (active); AC50 (INS1): 16.7 µM (active)
O=C1/C(=C/c2cccnc2)Oc2cc(OS(=O)(=O)c3ccccc3)ccc21	–	> 120 µM (not active)	18.3 µM (active)	8.55 µM (active)	–
O=C1CCC(C2CCc3cc(O)ccc3C2)C1 (centres undefined)	70.4 µM (active)	–	–	–	–
O=C(Cc1ccc([N+](=O)[O-])cc1)Nc1cccnc1	–	–	–	–	AC50 (INS1): 21.1 µM (active)
COc1cc(-c2nc3ccc(C)cn3c2NCc2ccccc2)ccc1SC1CCCCC1	–	–	–	–	AC50 (INS1): 4.87 µM (active)
N#CCC(=O)N/N=C/c1cc(-c2ccccc2)n(-c2ccc(Cl)cc2)c1-c1ccccc1	–	–	–	–	EC50 [8]: > 60 µM (inconclusive); EC50 [9]: 1.51 µM (active); AC50 (INS1): 3.21 µM (active)
Cc1ccc(S(=O)(=O)N2CCN(C(=O)CN3CCN(c4ccc(O)cc4)CC3)CC2)cc1	32.4 µM (active)	–	–	–	–
C/C(=N\N1C(=O)c2ccccc2NC1c1ccccc1)c1ccccc1O (centres undefined)	–	–	–	–	EC50 [8]: 7.4 µM (active); EC50 [9]: 2.13 µM (active); AC50 (INS1): 2.24 µM (active)
O=c1oc2ccccc2cc1NCc1ccccc1O	–	46.2 µM (active)	0.325 µM (active)	5.63 µM (active)	–
CC1CC(C)(C)N(C(=O)CN2CCN(C)CC2)c2ccccc21 (centres undefined)	85.3 µM (active)	–	–	–	–
Nc1ccc(N2CCN(c3ccc(Cl)c(Cl)c3)CC2)cc1	18.1 µM (active)	–	–	–	–
CC(C(=O)Nc1ccc2c(c1)OCO2)N1CCN(C)CC1 (centres undefined)	65.3 µM (active)	–	–	–	–
O=C(/N=C1\SCC(=O)N1c1ccccc1Cl)c1ccco1	–	–	4.12 µM (active)	8.06 µM (active)	–
Cc1ccc(CSc2nnc(SCC(=O)N/N=C/c3c(C)nn(-c4ccccc4)c3C)s2)cc1	–	43.9 µM (active)	0.169 µM (active)	> 120 µM (not active)	–
CCN1C(=O)/C(=C\NC2CCCC(C)C2C)SC1=S (centres undefined)	–	> 120 µM (not active)	0.564 µM (active)	15.8 µM (active)	–
COc1ccc2oc(=O)c(C(=O)N3CCN(c4ccccc4C)CC3)cc2c1	–	19 µM (active)	57 µM (active)	17 µM (active)	–
Cc1n[nH]c(SCC(=O)N2CCCCC2)c1[N+](=O)[O-]	–	17.3 µM (active)	14.7 µM (active)	8.02 µM (active)	–
